Counter-ions that a name gives are not always drawn.
Legend:
[1] = test system: experimental auto-immune encephalomyelitis (EAE) development in mice; experiment: Example 1 (repeated experiment): plasma neurofilament light (NF-L) levels in EAE mice, Simoa NF-light assay; assay type: in vivo, female C57BL/6 mice; conditions: Example 1 regimen repeated; Day 28 plasma; vs negative control
Protocol: On Day 28, blood was collected from all mice into tubes containing K2EDTA and mixed gently. Blood was then centrifuged at ˜10000 g for 5 minutes. Plasma was transferred into Eppendorf tubes and stored at −80° C. until shipment to Quanterix™. Plasma Neurofilament light (NF-L) protein levels were quantified using Simoa® NF-light Advantage kit, a digital immunoassay for the quantitative determination of NF-L in serum, plasma and CSF. The used antibodies (Uman Diagnostics, Umea Sweden) also cross react with murine, bovine and macaque NF-L epitopes and as such, this assay can be used for research with these species. All samples were tested in duplicate at a dilution factor of 40×.
Neurofilament light (NF-L) is a 68 kDa cytoskeletal filament protein that is expressed in neurons, as one of the major components of the neuronal cytoskeleton that provide structural support for the axon. Neurofilaments can be released following axonal damage or neuronal degeneration.

[2] = test system: experimental auto-immune encephalomyelitis (EAE) development in mice; experiment: Example 3: serum neurofilament light (NF-L) levels in EAE mice; assay type: in vivo, female C57BL/6 mice; conditions: Day 28 serum, vs negative control
Protocol: On Day 28, blood was collected from all mice into gel clot activator tubes and allowed to clot at room temperature for ˜30 minutes. Blood is then centrifuged at ˜10000 g for 5 minutes. Serum was transferred into Eppendorf tubes and stored at −80° C. until shipment to Quanterix™. Serum Neurofilament light (NF-L) protein levels were quantified using Simoa® NF-light Advantage kit as described in example 1.

Row | Molecule | plasma NF-L levels [1] | serum NF-L levels [2]
1 | HCPYCGWYRSPFSRVVHLYR [IMCY-0189] | reduced NF-L levels | statistically significant reduced NF-L levels
2 | COC(=O)/C=C/C(=O)OC [BG-12, dimethyl fumarate, reference compound] |  | statistically significant reduced NF-L levels

From patent US20230172894A1, “COMBINATION TREATMENT FOR FUMARATE-RELATED DISEASES” (IMCYSE SA, priority 2020, published 2023)
